The source of these data is ChEMBL document CHEMBL1201862, “PubChem BioAssay data set” (2004).

The source made the active and inactive calls.

Assay type in all cases: functional
In one test the test system is Vero. Description: viability of Vero cells under compound – cytotoxicity control for flavivirus capping enzyme inhibitors (AID 588742). To be noted: Chlorocebus sabaeus.
In test [1] the target is T1, Replicative DNA helicase DnaB (Mycobacterium tuberculosis, UniProt P9WMR3).
T1 sequence (P9WMR3 whole entry): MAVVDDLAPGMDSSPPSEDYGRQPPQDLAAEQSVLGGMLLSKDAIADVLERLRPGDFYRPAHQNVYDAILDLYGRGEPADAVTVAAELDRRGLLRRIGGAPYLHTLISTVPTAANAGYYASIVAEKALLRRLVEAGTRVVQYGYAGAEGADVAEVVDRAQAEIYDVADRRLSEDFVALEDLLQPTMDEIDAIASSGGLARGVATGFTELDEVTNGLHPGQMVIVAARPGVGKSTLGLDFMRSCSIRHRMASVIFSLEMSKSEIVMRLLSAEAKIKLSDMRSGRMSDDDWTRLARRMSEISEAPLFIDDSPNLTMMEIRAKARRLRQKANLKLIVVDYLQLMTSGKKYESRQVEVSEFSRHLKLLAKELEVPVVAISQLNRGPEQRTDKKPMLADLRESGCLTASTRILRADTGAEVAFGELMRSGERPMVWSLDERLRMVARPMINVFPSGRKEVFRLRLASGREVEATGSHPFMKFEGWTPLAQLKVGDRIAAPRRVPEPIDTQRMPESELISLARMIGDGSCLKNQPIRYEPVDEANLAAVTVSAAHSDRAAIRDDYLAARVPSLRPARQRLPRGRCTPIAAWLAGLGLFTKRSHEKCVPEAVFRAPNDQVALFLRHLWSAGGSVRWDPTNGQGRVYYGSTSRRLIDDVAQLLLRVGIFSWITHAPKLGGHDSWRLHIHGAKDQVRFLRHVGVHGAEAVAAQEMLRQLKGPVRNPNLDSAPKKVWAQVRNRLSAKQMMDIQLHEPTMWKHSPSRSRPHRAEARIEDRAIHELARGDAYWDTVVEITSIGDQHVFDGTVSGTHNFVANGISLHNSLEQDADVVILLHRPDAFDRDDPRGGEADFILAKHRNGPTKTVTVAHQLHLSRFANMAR
Put plainly: DnaB intein splicing inhibitors, dose response, biochemical, cell-free fluorescence (AID 449749).

The target of test [2] is Dual specificity tyrosine-phosphorylation-regulated kinase 1A (Homo sapiens, UniProt Q13627).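 Further: measured against DYRK1A as one member of a broad kinome profiling panel.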
Test [3] addresses Serine/threonine-protein kinase N2 (Homo sapiens, UniProt Q16513).
In test [4] the target is Serine/threonine-protein kinase PLK1 (Homo sapiens, UniProt P53350).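 Further: PLK1 measured as one member of a kinome-wide profiling panel.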
Test [5] deals with Testis-specific serine/threonine-protein kinase 1 (Homo sapiens, UniProt Q9BXA7).
The next test has as its target SRSF protein kinase 1 (Homo sapiens, UniProt Q96SB4).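 Further: measured as one member of a kinome-wide kinase profiling panel.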
Test [6] has as its target Fibroblast growth factor receptor 1 (Homo sapiens, UniProt P11362).
Test [7] deals with Tyrosine-protein kinase receptor TYRO3 (Homo sapiens, UniProt Q06418).
In test [8] the target is Protein kinase C zeta type (Homo sapiens, UniProt Q05513).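 Further: measured as one member of a broad kinase profiling panel.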
In test [9] the target is Lymphokine-activated killer T-cell-originated protein kinase (Homo sapiens, UniProt Q96KB5).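 Further: value comes from a kinase panel screen in which TOPK was one of the panel members.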
The target of test [10] is Serine/threonine-protein kinase Chk1 (Homo sapiens, UniProt O14757).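 Further: measured as one member of a kinome-wide kinase profiling panel.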
The target of test [11] is Serine/threonine-protein kinase Chk2 (Homo sapiens, UniProt O96017).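 Further: CHEK2 entry within a kinome-wide screening panel.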
The target in test [12] is Protein kinase C iota type (Homo sapiens, UniProt P41743).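 Further: measured within a kinome-wide kinase panel, PRKCI as panel member.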
Test [13] deals with Dual specificity protein kinase CLK2 (Homo sapiens, UniProt P49760).
The target in test [14] is Maternal embryonic leucine zipper kinase (Homo sapiens, UniProt Q14680).
Test [15] has as its target Mitogen-activated protein kinase 8 (Homo sapiens, UniProt P45983).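 Further: value comes from one member of a kinome-wide kinase profiling panel.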
The target of test [16] is Tyrosine-protein kinase Fer (Homo sapiens, UniProt P16591).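 Further: FER tested as one member of a kinome panel.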
Test [17] deals with Receptor-type tyrosine-protein kinase FLT3 (Homo sapiens, UniProt P36888).
The target in test [18] is STE20-like serine/threonine-protein kinase (Homo sapiens, UniProt Q9H2G2).
Test [19] concerns the target Homeodomain-interacting protein kinase 4 (Homo sapiens, UniProt Q8NE63).
Test [20] concerns the target Megakaryocyte-associated tyrosine-protein kinase (Homo sapiens, UniProt P42679).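 Further: affinity measured as one member of a kinase panel (Navigating the Kinome) against MATK.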
Test [21] addresses Proto-oncogene tyrosine-protein kinase Src (Homo sapiens, UniProt P12931).
Test [22] deals with Mitogen-activated protein kinase kinase kinase 20 (Homo sapiens, UniProt Q9NYL2).
The target of the next test is Ephrin type-A receptor 2 (Homo sapiens, UniProt P29317).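 Further: EPHA2 tested as one member of a kinome-wide kinase panel.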
Test [23] deals with Mitogen-activated protein kinase 13 (Homo sapiens, UniProt O15264).
Test [24] deals with Serine/threonine-protein kinase PAK 4 (Homo sapiens, UniProt O96013).
Test [25] addresses Casein kinase II subunit alpha (Homo sapiens, UniProt P68400).
The target of test [26] is Serine/threonine-protein kinase DCLK1 (Homo sapiens, UniProt O15075).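 Further: affinity for DCLK1 (listed as DCAMKL1) measured as one member of a kinome-wide kinase profiling panel.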
Test [27] addresses Mitogen-activated protein kinase kinase kinase kinase 2 (Homo sapiens, UniProt Q12851).
The target of test [28] is cGMP-dependent protein kinase 1 (Homo sapiens, UniProt Q13976).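 Further: value from a kinome panel screen with PRKG1 as the panel member.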
The target in test [29] is BDNF/NT-3 growth factors receptor (Homo sapiens, UniProt Q16620).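 Further: NTRK2 measured as one member of a broad kinome-wide kinase profiling panel.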
Test [30] deals with Ribosomal protein S6 kinase beta-1 (Homo sapiens, UniProt P23443).
Test [31] concerns the target Protein kinase C delta type (Homo sapiens, UniProt Q05655).
Test [32] concerns the target Cyclin-dependent kinase 1 (Homo sapiens, UniProt P06493).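 Further: Kinome-wide panel profiling, with the target listed as panel member CDC2.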

Sequence of Protein kinase C iota type (P41743 whole entry): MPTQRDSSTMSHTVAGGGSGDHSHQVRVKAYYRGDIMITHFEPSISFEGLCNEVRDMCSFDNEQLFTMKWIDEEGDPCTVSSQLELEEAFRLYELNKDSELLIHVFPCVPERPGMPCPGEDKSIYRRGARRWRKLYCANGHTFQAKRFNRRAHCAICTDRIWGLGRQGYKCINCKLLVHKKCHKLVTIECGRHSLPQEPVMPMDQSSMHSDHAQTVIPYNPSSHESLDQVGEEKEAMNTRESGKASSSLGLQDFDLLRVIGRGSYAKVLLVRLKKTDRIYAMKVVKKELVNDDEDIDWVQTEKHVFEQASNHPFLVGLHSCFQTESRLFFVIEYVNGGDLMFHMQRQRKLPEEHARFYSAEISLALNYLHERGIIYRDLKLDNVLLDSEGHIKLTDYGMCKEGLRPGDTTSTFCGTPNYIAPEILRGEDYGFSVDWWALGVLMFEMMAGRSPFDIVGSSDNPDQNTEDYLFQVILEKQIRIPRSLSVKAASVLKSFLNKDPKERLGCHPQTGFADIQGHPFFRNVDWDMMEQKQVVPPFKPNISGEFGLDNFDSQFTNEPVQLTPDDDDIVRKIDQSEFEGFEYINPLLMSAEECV
Sequence of STE20-like serine/threonine-protein kinase (Q9H2G2 whole entry): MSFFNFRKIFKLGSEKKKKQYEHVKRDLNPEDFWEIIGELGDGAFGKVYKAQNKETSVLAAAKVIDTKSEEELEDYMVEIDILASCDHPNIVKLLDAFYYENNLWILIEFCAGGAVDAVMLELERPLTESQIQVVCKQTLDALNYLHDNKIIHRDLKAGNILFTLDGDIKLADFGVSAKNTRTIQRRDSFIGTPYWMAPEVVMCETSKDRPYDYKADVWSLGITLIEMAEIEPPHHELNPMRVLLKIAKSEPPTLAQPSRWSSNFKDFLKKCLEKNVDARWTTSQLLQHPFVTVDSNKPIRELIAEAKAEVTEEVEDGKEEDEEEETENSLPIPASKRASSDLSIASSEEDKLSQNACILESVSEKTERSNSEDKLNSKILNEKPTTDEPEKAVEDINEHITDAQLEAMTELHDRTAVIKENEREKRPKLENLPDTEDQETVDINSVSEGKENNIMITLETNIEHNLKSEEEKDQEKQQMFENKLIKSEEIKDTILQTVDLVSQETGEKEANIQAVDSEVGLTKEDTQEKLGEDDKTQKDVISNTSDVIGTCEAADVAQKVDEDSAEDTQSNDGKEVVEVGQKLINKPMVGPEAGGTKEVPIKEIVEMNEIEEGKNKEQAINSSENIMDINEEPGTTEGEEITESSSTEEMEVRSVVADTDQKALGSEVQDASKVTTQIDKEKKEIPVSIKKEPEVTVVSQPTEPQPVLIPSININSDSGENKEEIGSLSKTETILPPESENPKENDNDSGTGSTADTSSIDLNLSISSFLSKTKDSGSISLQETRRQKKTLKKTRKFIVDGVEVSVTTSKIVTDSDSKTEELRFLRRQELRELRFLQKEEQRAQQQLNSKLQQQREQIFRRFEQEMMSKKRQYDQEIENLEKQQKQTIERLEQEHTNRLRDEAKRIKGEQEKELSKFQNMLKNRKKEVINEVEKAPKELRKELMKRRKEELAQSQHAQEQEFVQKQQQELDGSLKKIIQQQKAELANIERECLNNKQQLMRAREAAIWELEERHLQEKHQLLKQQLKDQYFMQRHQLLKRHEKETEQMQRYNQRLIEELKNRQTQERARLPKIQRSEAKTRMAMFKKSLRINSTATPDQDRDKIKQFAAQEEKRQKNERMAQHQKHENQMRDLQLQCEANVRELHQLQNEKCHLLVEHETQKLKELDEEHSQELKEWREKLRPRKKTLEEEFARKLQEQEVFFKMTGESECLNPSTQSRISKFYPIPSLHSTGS
Sequence of Serine/threonine-protein kinase N2 (Q16513 whole entry): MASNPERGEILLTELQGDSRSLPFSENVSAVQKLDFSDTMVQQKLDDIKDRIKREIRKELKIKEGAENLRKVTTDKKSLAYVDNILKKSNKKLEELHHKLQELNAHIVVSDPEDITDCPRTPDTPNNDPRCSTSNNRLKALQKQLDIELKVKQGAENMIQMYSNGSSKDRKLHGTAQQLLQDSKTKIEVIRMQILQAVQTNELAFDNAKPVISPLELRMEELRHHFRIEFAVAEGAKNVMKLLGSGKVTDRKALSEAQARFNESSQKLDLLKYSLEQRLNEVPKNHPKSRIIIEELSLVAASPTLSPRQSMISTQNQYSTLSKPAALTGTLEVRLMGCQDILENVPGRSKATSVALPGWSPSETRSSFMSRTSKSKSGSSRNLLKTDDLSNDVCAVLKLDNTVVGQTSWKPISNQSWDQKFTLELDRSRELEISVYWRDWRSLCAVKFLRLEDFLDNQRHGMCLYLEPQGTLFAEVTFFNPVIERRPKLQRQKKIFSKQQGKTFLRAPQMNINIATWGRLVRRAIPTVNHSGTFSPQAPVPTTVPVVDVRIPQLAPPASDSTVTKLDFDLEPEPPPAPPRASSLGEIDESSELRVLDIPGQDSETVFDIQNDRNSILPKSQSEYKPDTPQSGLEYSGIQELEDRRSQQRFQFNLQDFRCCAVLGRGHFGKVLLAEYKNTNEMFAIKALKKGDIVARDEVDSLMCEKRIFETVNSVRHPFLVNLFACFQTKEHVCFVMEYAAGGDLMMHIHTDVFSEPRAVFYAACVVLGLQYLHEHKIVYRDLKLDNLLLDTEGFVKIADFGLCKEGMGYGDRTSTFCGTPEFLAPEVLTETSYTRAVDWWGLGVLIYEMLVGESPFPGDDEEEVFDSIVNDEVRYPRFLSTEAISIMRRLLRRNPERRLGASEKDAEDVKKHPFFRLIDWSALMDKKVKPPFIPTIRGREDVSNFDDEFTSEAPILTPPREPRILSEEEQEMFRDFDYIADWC
Sequence of Protein kinase C zeta type (Q05513 whole entry): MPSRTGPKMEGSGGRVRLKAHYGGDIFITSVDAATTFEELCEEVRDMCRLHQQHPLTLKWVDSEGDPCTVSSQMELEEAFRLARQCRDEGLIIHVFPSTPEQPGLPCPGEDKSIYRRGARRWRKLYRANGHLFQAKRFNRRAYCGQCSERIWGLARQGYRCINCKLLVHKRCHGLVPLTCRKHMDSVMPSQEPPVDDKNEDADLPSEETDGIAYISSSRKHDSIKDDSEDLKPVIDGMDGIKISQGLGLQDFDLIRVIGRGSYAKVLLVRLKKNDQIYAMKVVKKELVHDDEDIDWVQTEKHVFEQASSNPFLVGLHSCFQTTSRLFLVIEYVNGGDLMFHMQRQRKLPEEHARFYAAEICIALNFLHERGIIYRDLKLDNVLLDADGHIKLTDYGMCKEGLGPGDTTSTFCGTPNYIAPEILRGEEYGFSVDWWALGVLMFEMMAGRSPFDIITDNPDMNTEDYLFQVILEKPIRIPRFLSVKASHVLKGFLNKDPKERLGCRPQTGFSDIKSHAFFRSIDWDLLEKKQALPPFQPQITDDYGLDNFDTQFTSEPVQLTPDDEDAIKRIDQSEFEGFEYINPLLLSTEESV
Sequence of Serine/threonine-protein kinase PLK1 (P53350 whole entry): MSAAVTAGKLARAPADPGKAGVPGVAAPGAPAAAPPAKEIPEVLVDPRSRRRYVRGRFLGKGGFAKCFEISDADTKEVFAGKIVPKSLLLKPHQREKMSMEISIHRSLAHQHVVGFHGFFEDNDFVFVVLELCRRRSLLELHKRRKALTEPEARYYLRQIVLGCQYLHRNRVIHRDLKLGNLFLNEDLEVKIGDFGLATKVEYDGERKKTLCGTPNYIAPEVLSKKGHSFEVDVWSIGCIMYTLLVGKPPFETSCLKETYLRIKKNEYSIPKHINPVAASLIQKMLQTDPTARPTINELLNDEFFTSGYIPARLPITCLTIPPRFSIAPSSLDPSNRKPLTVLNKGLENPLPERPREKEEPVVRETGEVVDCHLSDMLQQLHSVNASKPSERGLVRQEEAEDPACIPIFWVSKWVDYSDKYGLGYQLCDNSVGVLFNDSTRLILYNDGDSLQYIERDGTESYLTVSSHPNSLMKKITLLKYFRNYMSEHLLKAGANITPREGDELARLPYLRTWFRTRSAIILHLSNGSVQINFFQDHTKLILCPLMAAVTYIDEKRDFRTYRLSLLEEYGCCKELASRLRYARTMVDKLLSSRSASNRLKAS
Sequence of Fibroblast growth factor receptor 1 (P11362 whole entry): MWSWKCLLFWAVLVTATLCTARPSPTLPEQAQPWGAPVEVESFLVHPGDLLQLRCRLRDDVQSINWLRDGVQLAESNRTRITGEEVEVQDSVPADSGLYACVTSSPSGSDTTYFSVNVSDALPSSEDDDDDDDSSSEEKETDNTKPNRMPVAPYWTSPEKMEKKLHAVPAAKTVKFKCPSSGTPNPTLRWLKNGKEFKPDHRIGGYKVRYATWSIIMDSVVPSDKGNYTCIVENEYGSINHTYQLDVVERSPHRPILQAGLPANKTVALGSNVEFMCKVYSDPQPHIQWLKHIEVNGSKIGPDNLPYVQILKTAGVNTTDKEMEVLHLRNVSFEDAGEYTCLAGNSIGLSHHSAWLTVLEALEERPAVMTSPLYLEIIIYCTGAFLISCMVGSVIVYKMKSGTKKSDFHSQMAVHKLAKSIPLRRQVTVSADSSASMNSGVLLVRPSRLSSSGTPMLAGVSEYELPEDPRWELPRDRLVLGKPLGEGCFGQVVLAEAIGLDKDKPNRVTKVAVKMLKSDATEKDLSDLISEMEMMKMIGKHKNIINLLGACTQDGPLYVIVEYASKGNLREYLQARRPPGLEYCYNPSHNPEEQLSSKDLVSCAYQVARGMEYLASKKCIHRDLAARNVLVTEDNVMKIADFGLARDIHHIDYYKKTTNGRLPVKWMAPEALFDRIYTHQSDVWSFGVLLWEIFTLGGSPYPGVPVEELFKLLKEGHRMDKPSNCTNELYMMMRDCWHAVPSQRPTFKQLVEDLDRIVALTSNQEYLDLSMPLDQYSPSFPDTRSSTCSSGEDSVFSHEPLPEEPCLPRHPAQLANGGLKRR

Regarding `CCc1ccc(S(=O)(=O)/N=C2\C=C(NS(=O)(=O)c3ccccc3)C(=O)c3ccccc32)cc1`, the half-maximal cytotoxic concentration (CC50) with Vero is > 40 µM (active). In test [1], the AC50 was 2.55 µM (active).

With `Cn1cncc1C(OCc1c(-c2ccc(OC(F)(F)F)cc2)cc(C#N)c(=O)n1C)c1ccc(C#N)cc1` (stereo not given), the Ki is 0.316 µM (active) in test [2]; > 7.94 µM (inactive) in [3]; > 7.94 µM (inactive) in [4]; > 1.58 µM (inactive) in [5]; > 7.94 µM (inactive) at SRSF protein kinase 1; > 5.01 µM (inactive) in [6]. Further, the Ki is > 2 µM (inactive) in [7]; > 7.94 µM (inactive) in test [8]; > 10 µM (inactive) in [9]; > 7.94 µM (inactive) in [10]; > 1.58 µM (inactive) in [11]; > 5.01 µM (inactive) in [12]. For the same compound, the Ki is > 7.94 µM (inactive) in [13]; > 1.58 µM (inactive) in test [14]; > 3.16 µM (inactive) in [15]; > 1.58 µM (inactive) in [16]; 0.631 µM (active) in [17]; > 10 µM (inactive) in test [18]. In addition, the Ki was > 7.94 µM (inactive) in test [19]; > 2 µM (inactive) in [20]; > 2 µM (inactive) in [21]; > 7.94 µM (inactive) in test [22]; > 3.16 µM (inactive) at Ephrin type-A receptor 2; > 7.94 µM (inactive) in [23]. Also, the Ki is > 5.01 µM (inactive) in test [24]; > 6.31 µM (inactive) in test [25]; > 10 µM (inactive) in [26]; > 6.31 µM (inactive) in test [27]; > 2 µM (inactive) in [28]; > 5.01 µM (inactive) in test [29]. Also, the Ki is 1.58 µM (active) in [30], > 7.94 µM (inactive) in [31] and > 7.94 µM (inactive) in test [32].

As usually defined, the CC50 is the concentration at which the toxic effect on the cells reaches its halfway point. A word on the AC50: it is the concentration at which the activity in the assay is half-maximal. What is called Ki is the equilibrium dissociation constant of an inhibitor or competing ligand from its target.
